Data on eleven compounds can be found in patent publication US9133194B2, “Cyclic tripeptide mimetics as plasmin inhibitors” (priority 2011, dated 2015).

Data set [1] addresses plasmin (Homo sapiens, UniProt P00747). Nature of the data set: Enzyme-kinetic determination of inhibition constants, plasmin (Chromozym PL). The data set is classed as biochemical. An excerpt: (§1) The Ki values are the mean value of at least two determinations.
For data set [2], the target named is Thrombin (bovine) (Bos taurus, UniProt P00735). Nature of the data set: Enzyme-kinetic determination of inhibition constants, thrombin (Pefachrome tPA). It is filed as biochemical. To be noted: Tris-HCl buffer pH 8.0, Dixon, mean of at least two determinations.
Description: as §1

The target in data set [3] is Factor Xa (human) (Homo sapiens, UniProt P00742). Nature of the data set: Enzyme-kinetic determination of inhibition constants, factor Xa (Pefachrome FXa). The data set is classed as biochemical. The following applies: Tris-HCl buffer pH 8.0, Dixon, mean of at least two determinations.
Factor Xa (human), sequence (P00742 235-488 limits assumed): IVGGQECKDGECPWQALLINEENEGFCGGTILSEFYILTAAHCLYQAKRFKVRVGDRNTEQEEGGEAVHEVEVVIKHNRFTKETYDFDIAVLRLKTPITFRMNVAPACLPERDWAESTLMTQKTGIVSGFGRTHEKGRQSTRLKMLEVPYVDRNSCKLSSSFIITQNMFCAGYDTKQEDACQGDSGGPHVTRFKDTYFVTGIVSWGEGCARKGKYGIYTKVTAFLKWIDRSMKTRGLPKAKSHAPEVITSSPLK
Factor Xa (human), sequence (P00742 41-179 partner limits assumed): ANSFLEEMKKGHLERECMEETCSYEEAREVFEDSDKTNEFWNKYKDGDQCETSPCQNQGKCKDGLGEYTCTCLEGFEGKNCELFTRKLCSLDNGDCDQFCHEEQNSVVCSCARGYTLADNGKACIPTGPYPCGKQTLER
Description: as §1

For data set [4], the target named is plasma kallikrein (Homo sapiens, UniProt P03952). Nature of the data set: Enzyme-kinetic determination of inhibition constants, plasma kallikrein (Haemochrom PK). It is filed as biochemical. To be noted: Tris-HCl buffer pH 8.0, Dixon, mean of at least two determinations.
plasma kallikrein, sequence (P03952 391-638 limits assumed): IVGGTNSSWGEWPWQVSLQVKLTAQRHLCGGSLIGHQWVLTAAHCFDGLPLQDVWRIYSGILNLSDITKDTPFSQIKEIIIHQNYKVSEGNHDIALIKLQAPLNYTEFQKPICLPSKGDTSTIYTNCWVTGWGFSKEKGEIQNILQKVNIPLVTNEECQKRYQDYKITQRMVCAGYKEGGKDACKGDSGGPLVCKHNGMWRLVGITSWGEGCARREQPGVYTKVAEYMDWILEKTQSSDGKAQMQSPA
plasma kallikrein, sequence (P03952 20-390 partner limits assumed): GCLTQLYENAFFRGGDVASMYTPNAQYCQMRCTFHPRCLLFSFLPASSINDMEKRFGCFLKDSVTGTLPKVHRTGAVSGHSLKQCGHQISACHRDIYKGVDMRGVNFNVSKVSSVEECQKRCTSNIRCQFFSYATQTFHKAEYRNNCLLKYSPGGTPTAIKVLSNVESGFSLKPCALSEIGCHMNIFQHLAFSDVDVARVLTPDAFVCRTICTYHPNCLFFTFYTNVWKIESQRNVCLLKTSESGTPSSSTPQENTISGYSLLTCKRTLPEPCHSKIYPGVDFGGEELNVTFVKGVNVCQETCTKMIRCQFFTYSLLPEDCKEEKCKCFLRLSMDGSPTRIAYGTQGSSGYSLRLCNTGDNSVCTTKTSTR
Description: as §1

For data set [5] the following is noted: cited from earlier work.
Data set [6] deals with trypsin. To be noted: background, aprotinin; read-out: K for trypsin; cited from earlier work.
Setting [7] is: Tris-HCl buffer pH 8.0, Dixon, mean of at least two determinations, read-out: Ki Plasmin.

Like-named read-outs stand apart in the source and are kept apart here. Some results are limits rather than exact numbers.

plasmin, sequence (P00747 581-810 limits assumed): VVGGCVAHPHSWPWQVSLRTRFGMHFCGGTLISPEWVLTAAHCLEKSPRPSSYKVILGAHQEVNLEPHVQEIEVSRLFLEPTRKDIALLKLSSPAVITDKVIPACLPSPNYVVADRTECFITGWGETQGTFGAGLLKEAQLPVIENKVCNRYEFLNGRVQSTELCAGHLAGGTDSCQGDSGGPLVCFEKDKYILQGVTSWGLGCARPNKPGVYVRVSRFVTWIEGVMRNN
plasmin, sequence (P00747 97-580 partner limits assumed): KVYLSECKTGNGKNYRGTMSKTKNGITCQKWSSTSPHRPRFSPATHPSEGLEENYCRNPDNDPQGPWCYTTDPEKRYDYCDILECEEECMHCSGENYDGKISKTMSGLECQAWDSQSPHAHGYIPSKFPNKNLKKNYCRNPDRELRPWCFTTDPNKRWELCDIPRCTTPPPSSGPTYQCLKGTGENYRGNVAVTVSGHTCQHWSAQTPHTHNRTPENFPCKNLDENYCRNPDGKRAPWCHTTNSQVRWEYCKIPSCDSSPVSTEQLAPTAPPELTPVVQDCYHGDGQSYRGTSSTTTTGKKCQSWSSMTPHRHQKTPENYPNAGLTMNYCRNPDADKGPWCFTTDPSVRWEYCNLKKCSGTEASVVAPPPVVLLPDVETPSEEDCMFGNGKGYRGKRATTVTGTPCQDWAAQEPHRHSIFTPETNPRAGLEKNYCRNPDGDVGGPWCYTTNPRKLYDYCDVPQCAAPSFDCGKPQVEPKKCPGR

As for `NCc1ccc(CNC(=O)[C@@H]2Cc3ccc(cc3)NC(=O)CCN3CCN(CCC(=O)Nc4ccc(cc4)C[C@@H](NS(=O)(=O)Cc4ccccc4)C(=O)N2)CC3)cc1` [Inhibitor 3], the Ki in data set [1] amounted to 1.24 nM; in data set [2] it was 141 µM; in data set [3] it was 78 µM; in data set [4], 6.38 µM.

As for `N=C(N)c1ccc(CNC(=O)[C@@H]2Cc3ccc(cc3)NC(=O)CCN3CCN(CCC(=O)Nc4ccc(cc4)C[C@@H](NS(=O)(=O)NC4CCCCC4)C(=O)N2)CC3)cc1` [Inhibitor 1], the Ki amounted to 0.052 nM in data set [1], 17 µM in data set [2], 7.4 µM in data set [3] and 0.6 µM in data set [4].

Regarding `N=C(N)c1ccc(CNC(=O)[C@@H]2Cc3ccc(cc3)NC(=O)CCN3CCN(CCC(=O)Nc4ccc(cc4)C[C@@H](NC(=O)OCc4ccccc4)C(=O)N2)CC3)cc1` [Inhibitor 5], the Ki in data set [1] (setting [7]) amounted to 0.77 nM; in data set [2], 44 µM; in data set [3], 47.4 µM; in data set [4], 6.95 µM.

Take aprotinin: the “risk of an anaphylactic shock” value in data set [5] (aprotinin applied for the first time) is less than 0.1%; in data set [5] (repeated administration within 200 days), 4-5%. Besides, the “risk of myocardial infarction and apoplectic stroke” value in data set [5] (compared to the control groups) was “increased”. Also, the “number of cases of kidney damage requiring subsequent dialysis” value in data set [5] (comparison with ε-aminocaproic acid or tranexamic acid (Mangano et al.)) is “doubling”. Besides, the Ki in data set [6] is 0.0001 µM.

On to `CC1(C)C(=O)Nc2ccc(cc2)C[C@@H](C(=O)NCc2ccc(C(=N)N)cc2)NC(=O)[C@H](NS(=O)(=O)Cc2ccccc2)Cc2ccc(cc2)NC(=O)C(C)(C)N2CCN1CC2` [Inhibitor 7], for which the Ki in data set [1] (setting [7]) was determined as 2.2 nM; in data set [2], 0.62 µM; in data set [3], 1.45 µM; in data set [4], 0.077 µM.

For `N=C(N)c1ccc(CNC(=O)[C@@H]2Cc3ccc(cc3)NC(=O)CN3CCN(CC3)CC(=O)Nc3ccc(cc3)C[C@@H](NS(=O)(=O)NC3CCCCC3)C(=O)N2)cc1` [Inhibitor 2], the Ki in data set [1] was determined as 0.32 nM; in data set [2], 16 µM; in data set [3] it was 7.9 µM; in data set [4], 0.319 µM.

For `N=C(N)c1ccc(CNC(=O)[C@@H]2Cc3ccc(cc3)NC(=O)CCN3CCN(CCC(=O)Nc4ccc(cc4)C[C@@H](N)C(=O)N2)CC3)cc1` [Inhibitor 6], the Ki in data set [1] worked out at 12.8 nM; in data set [2], 60.8 µM; in data set [3], 405 µM; in data set [4], 24.5 µM.

As for `N=C(N)c1ccc(CNC(=O)[C@@H]2Cc3ccc(cc3)NC(=O)CCN3CCN(CCC(=O)Nc4ccc(cc4)C[C@@H](NC(=O)Cc4ccccc4)C(=O)N2)CC3)cc1` [Inhibitor 4], the Ki in data set [1] (setting [7]) was 8 nM; in data set [2], 41.8 µM; in data set [3], 188 µM; in data set [4], 7.92 µM.

Turning to `N=C(N)c1ccc(CNC(=O)[C@@H]2Cc3ccc(cc3)NC(=O)CN3CCN(CC3)CC(=O)Nc3ccc(cc3)C[C@@H](NC(=O)OCc3ccccc3)C(=O)N2)cc1` [Inhibitor 11], the Ki was 5.4 nM in data set [1] (setting [7]), 46.9 µM in data set [2], 104 µM in data set [3] and 4.64 µM in data set [4].

Take `CN(C)S(=O)(=O)N[C@@H]1Cc2ccc(cc2)NC(=O)CN2CCN(CC2)CC(=O)Nc2ccc(cc2)C[C@@H](C(=O)NCc2ccc(C(=N)N)cc2)NC1=O` [Inhibitor 14]: the Ki in data set [1] was 5.9 nM; in data set [2], 4.96 µM; in data set [3], 134 µM; in data set [4], 12 µM.

`N=C(N)NCCCCNC(=O)[C@@H]1Cc2ccc(cc2)NC(=O)CCN2CCN(CCC(=O)Nc3ccc(cc3)C[C@@H](NS(=O)(=O)NC3CCCCC3)C(=O)N1)CC2` [Inhibitor 13]: the Ki in data set [1] (setting [7]) came out at 3.5 nM.
